Experimental data from ChEMBL document CHEMBL1201862, “PubChem BioAssay data set” (2004).
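Cells were grown in 96-well plates and exposed to each compound for 48 hours at five concentrations; endpoints were interpolated linearly between bracketing concentrations, or set to the highest concentration if not reached. Here, GI50 denotes the concentration required for 50% inhibition of growth.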 Calls of active or inactive are those of the source. Cut-off read from the data, not from the text of the source: active = GI50 up to about 1.1 µM and inactive = higher.

Columns and labels:
Assay in all cases: growth of human tumour cells (NCI), 48 h
[1] = test system: SN12C
[2] = test system: UACC-257
[3] = test system: NCI-H23
[4] = test system: SK-OV-3
[5] = test system: U-251
[6] = test system: LOX IMVI
[7] = test system: SW-620
[8] = test system: KM12
[9] = test system: SR
[10] = test system: HL-60
[11] = test system: Malme-3M
[12] = test system: HCT-15
[13] = test system: HT-29
[14] = test system: SF-268
[15] = test system: SF-539
[16] = test system: A498
[17] = test system: HCC 2998
[18] = test system: EKVX

CN(C)CCCNc1ccc2ncn3c4ccccc4c(=O)c1c23
GI50 [1]: 11.5 µM (inactive)
GI50 [2]: 14.6 µM (inactive)
GI50 [3]: 12.3 µM (inactive)
GI50 [4]: 8.59 µM (inactive)
GI50 [5]: 11.4 µM (inactive)
GI50 [6]: 3.51 µM (inactive)
GI50 [7]: 4.71 µM (inactive)
GI50 [8]: 5.87 µM (inactive)
GI50 [9]: 2.94 µM (inactive)
GI50 [10]: 6.41 µM (inactive)
GI50 [11]: 13.7 µM (inactive)
GI50 [12]: 8.53 µM
GI50 [13]: 4.88 µM (inactive)
GI50 [14]: 7.6 µM (inactive)
GI50 [15]: 8.73 µM (inactive)
GI50 [16]: > 10 µM (inactive)

CC1=C(O)/C(=C/C(C)CCC/C(C)=C/C=C/C(C)CCCc2ccoc2)OC1=O (configuration not stated)
GI50 [1]: 35.3 µM (inactive)
GI50 [2]: 21.7 µM (inactive)
GI50 [3]: 23.7 µM (inactive)
GI50 [5]: 37.8 µM (inactive)
GI50 [17]: 23 µM (inactive)
GI50 [6]: 34.2 µM (inactive)
GI50 [7]: 33.3 µM (inactive)
GI50 [8]: 34.4 µM (inactive)
GI50 [10]: 24.7 µM (inactive)
GI50 [11]: 10.1 µM (inactive)
GI50 [18]: 25 µM (inactive)
GI50 [13]: 45.4 µM (inactive)
GI50 [14]: 26.7 µM (inactive)
GI50 [15]: 30.3 µM (inactive)

CC(C)(C)/N=C\N1CCC(C(c2ccccc2)c2ccccc2)CC1
GI50 [1]: 78.3 µM (inactive)
GI50 [2]: 37.3 µM (inactive)
GI50 [3]: > 100 µM (inactive)
GI50 [5]: 60.4 µM (inactive)
GI50 [6]: 23.8 µM (inactive)
GI50 [7]: > 100 µM (inactive)
GI50 [8]: 65.8 µM (inactive)
GI50 [11]: 18.2 µM (inactive)
GI50 [18]: > 100 µM (inactive)
GI50 [12]: 55.3 µM
GI50 [13]: 21.6 µM (inactive)
GI50 [14]: 49.8 µM (inactive)
GI50 [15]: 78.7 µM (inactive)
GI50 [16]: 38.3 µM (inactive)

CC1c2[nH]c3ccccc3c2CCN1O (configuration not stated)
GI50 [1]: > 100 µM (inactive)
GI50 [2]: > 100 µM (inactive)
GI50 [3]: > 100 µM (inactive)
GI50 [4]: > 100 µM (inactive)
GI50 [5]: > 100 µM (inactive)
GI50 [17]: > 100 µM (inactive)
GI50 [6]: > 100 µM (inactive)
GI50 [7]: > 100 µM (inactive)
GI50 [8]: > 100 µM (inactive)
GI50 [10]: > 100 µM (inactive)
GI50 [11]: > 100 µM (inactive)
GI50 [18]: > 100 µM (inactive)
GI50 [12]: > 100 µM
GI50 [13]: > 100 µM (inactive)
GI50 [14]: > 100 µM (inactive)
GI50 [15]: > 100 µM (inactive)
GI50 [16]: > 100 µM (inactive)

CN(C)c1n/c(=N/c2ccc3c(c2)OCO3)ss1
GI50 [1]: 73.6 µM (inactive)
GI50 [2]: > 100 µM (inactive)
GI50 [3]: 66.4 µM (inactive)
GI50 [4]: > 100 µM (inactive)
GI50 [5]: 37.6 µM (inactive)
GI50 [17]: 44.4 µM (inactive)
GI50 [6]: 64 µM (inactive)
GI50 [7]: 74 µM (inactive)
GI50 [8]: 51.5 µM (inactive)
GI50 [10]: 19 µM (inactive)
GI50 [11]: > 100 µM (inactive)
GI50 [18]: 49.9 µM (inactive)
GI50 [12]: 40.4 µM
GI50 [13]: 38.5 µM (inactive)
GI50 [14]: 47.6 µM (inactive)
GI50 [15]: 67.6 µM (inactive)
GI50 [16]: 43.9 µM (inactive)

CSc1nc(NC2OCC(OC(C)=O)C(OC(C)=O)C2OC(C)=O)c2c(n1)OCC2=O (configuration not stated)
GI50 [1]: > 100 µM (inactive)
GI50 [2]: > 100 µM (inactive)
GI50 [3]: > 100 µM (inactive)
GI50 [4]: > 100 µM (inactive)
GI50 [5]: > 100 µM (inactive)
GI50 [17]: > 100 µM (inactive)
GI50 [6]: > 100 µM (inactive)
GI50 [7]: > 100 µM (inactive)
GI50 [8]: > 100 µM (inactive)
GI50 [10]: > 100 µM (inactive)
GI50 [11]: > 100 µM (inactive)
GI50 [18]: > 100 µM (inactive)
GI50 [12]: > 100 µM
GI50 [13]: > 100 µM (inactive)
GI50 [14]: > 100 µM (inactive)
GI50 [15]: > 100 µM (inactive)
GI50 [16]: > 100 µM (inactive)

NS(=O)(=O)c1ccc(NC(=O)Cc2nc3ccccc3s2)cc1
GI50 [1]: 17.2 µM (inactive)
GI50 [2]: 15.8 µM (inactive)
GI50 [3]: 15.9 µM (inactive)
GI50 [4]: 25.7 µM (inactive)
GI50 [5]: 15.2 µM (inactive)
GI50 [17]: 19.5 µM (inactive)
GI50 [7]: 17.1 µM (inactive)
GI50 [8]: 16.3 µM (inactive)
GI50 [9]: 20.1 µM (inactive)
GI50 [10]: 19.1 µM (inactive)
GI50 [11]: 16 µM (inactive)
GI50 [18]: 22.6 µM (inactive)
GI50 [12]: 17.7 µM
GI50 [13]: 18.3 µM (inactive)
GI50 [14]: 16.2 µM (inactive)
GI50 [15]: 18.3 µM (inactive)
GI50 [16]: 21.1 µM (inactive)

CC1(C)CC2(S(=O)(=O)c3ccccc3)ON1CC2S(=O)(=O)c1ccccc1 (configuration not stated)
GI50 [1]: > 100 µM (inactive)
GI50 [2]: > 100 µM (inactive)
GI50 [3]: 88.5 µM (inactive)
GI50 [4]: > 100 µM (inactive)
GI50 [5]: > 100 µM (inactive)
GI50 [17]: > 100 µM (inactive)
GI50 [6]: 87.1 µM (inactive)
GI50 [7]: > 100 µM (inactive)
GI50 [8]: > 100 µM (inactive)
GI50 [9]: 39.4 µM (inactive)
GI50 [10]: 26.4 µM (inactive)
GI50 [11]: > 100 µM (inactive)
GI50 [18]: > 100 µM (inactive)
GI50 [12]: > 100 µM
GI50 [13]: > 100 µM (inactive)
GI50 [14]: > 100 µM (inactive)
GI50 [15]: > 100 µM (inactive)

CCCCCCCCCCCCCCC(C)CCC(=O)O (configuration not stated)
GI50 [1]: > 100 µM (inactive)
GI50 [2]: > 100 µM (inactive)
GI50 [3]: > 100 µM (inactive)
GI50 [5]: 52.5 µM (inactive)
GI50 [6]: 31.6 µM (inactive)
GI50 [7]: > 100 µM (inactive)
GI50 [8]: 49.8 µM (inactive)
GI50 [11]: > 100 µM (inactive)
GI50 [18]: > 100 µM (inactive)
GI50 [13]: 34.5 µM (inactive)
GI50 [14]: > 100 µM (inactive)
GI50 [15]: 48.9 µM (inactive)
GI50 [16]: > 100 µM (inactive)
